{"source": "patent US20080051464A1", "about": "“Protein phosphatase inhibitors” (The Cleveland Clinic Foundation, priority 2006, published 2008)", "key": {"toxicity of L5 in mice": {"assay": "toxicity of L5 in mice", "type": "in vivo, mouse", "conditions": "10 mg/kg, daily, s.c., two weeks", "procedure": "FIG. 3 illustrates differential toxicity of L5 and L6. Jurkat cells were cultured in the absence or presence of lead compound #5 (L5) (A) or #6 (L6) (B) for 6 days prior to quantification of cell growth by MTT assays. Data represent mean ±SD of triplicate samples. Balb/c mice were treated with L5 (˜10 mg/kg body weight, s.c., daily, M-F/wk) for two weeks to assess its toxicity in vivo (C).\n(§1) Spleens were harvested one hour post-treatment on day 4 and processed into splenocytes, which were used for assessing pLck levels by SDS-PAGE/Western blotting and for quantification of IFNγ+ cells by ELISPOT assays. Mice were also treated with L5 (˜10 mg/kg body weight, daily, s.c., n=2) to evaluate the toxicity of the compounds in vivo."}, "[1]": {"test_system": "spleen pLck and IFNγ+ cells", "assay": "in vivo induction of spleen pLck and IFNγ+ cells in mice", "design": "species or system mouse", "procedure": "as §1"}, "B16 melanoma cells": {"test_system": "B16 melanoma cells", "assay": "B16 melanoma cell growth in culture (MTT assay)", "type": "cell-based, mouse", "conditions": "doses up to 10 μg/ml, 5 days", "from_the_text": "L5, L6 and L6 analogs (Chembridge), mouse IFNγ ELISPOT Kit (R & D System) and antibody against pLck-pY394 or pERK1/2 (Cell Signaling) were purchased from commercial sources. Human Jurkat T cell line and murine B16 melanoma cell line (ATCC) and other cancer cell lines were maintained in […] culture medium supplemented with 10% fetal calf serum (FCS). The effects of chemical compounds on cancer cell growth in culture were quantified by MTT assays following our established procedures."}, "recombinant SHP-1": {"molecular_target": "T1, recombinant SHP-1 (Homo sapiens, UniProt P29350)", "T1 construct": "Recombinant protein of SHP-1 PTPase catalytic domain was described", "T1 sequence (P29350 244-515 limits assumed)": "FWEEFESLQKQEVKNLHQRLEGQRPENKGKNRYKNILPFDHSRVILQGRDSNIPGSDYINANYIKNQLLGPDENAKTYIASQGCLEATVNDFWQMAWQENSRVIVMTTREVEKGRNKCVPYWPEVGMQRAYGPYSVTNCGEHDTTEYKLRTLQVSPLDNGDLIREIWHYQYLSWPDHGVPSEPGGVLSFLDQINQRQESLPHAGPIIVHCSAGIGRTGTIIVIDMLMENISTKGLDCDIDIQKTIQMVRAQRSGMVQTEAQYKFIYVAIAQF", "assay": "rapid in vitro SHP-1 PTPase assay (DIFMUP substrate)", "type": "biochemical", "conditions": "1 μg/well; FIG. 12A", "procedure": "Recombinant protein of SHP-1 PTPase catalytic domain was described and stored in Tris buffer (25 mM Tris, pH7.5, 1 mM EDTA, 2 μM 2-ME, 25% glycerol) at −80° C. Fluorescence substrate DIFMUP (6,8-difluoro-4 methylumbelliferyl phosphate) was purchased (Molecular Probes). SSG was reported previously (21-23) and stored at 4° C. in darkness prior to use. Human and mouse IFNγ ELISPOT Kit (R & D System), CD4^+ Cell Intracellular IFNγ Detection Kit (BD Bioscience) and CD8^+ Cell Intracellular IFNγ Detection Kit (BD Bioscience) were purchased from commercial sources. Human Jurkat T cell line (26) and murine B16 melanoma cell line (ATCC) were maintained in […] culture medium supplemented with 10% fetal calf serum (FCS). Antibodies against pLck-pY394 (Cell Signaling), pLck-pY505 (Cell Signaling), pZap70 (pY319, BD Biosciences), pSlp76 (pY128, BD Biosciences) and pLat (pY226, BD Biosciences) were purchased from commercial sources.\n(§2) A rapid SHP-1 PTPase assay was developed for screening the compounds in a commercial library of 34,000 drug-like small chemicals (Chembridge, Mass.). Briefly, compounds of the library (1 μg/well in 0.21 DMSO) were placed in 96-well plates (Falcon, 353072) and mixed with recombinant SHP-1 protein (0.1 μg/well) in 90 μl of HEPES buffer (50 mM HEPS, pH 7.5, 150 mM NaCl, 1 mM EDTA, 0.2 mM DTT and 0.1 mg/ml BSA). The plates were incubated at room temperature for 10 minutes prior to the addition of fluorescence substrate DIFMUP (40 μM stock in HEPES buffer, 10 μl/well) to initiate PTPase reaction. Upon completion of PTPase reaction at room temperature for 1 hr in darkness, fluorescence signal of individual wells were recorded using a Vector^2 Multilabel Counter (Vector, CA). They were compared to that of control SHP-1 PTPase reaction (˜10,000 units of fluorescence signal) in the absence of any compound (100%) for calculating relative SHP-1 inhibition induced by the compounds after subtracting the background signal (˜500 units of fluorescence signal) of the substrate.\nas §2, with “To evaluate their” for “A rapid”, “inhibitory activity,” for “PTPase assay was developed for screening”, “analogs” for “compounds in a commercial library of 34,000 drug-like small chemicals (Chembridge, Mass.). Briefly, compounds of the library”, “0.2 μl” for “0.21”, “aliquot individually to” for “placed in”, “(500” for “(˜500”"}}, "data": [{"smiles": "O=C1C=CC(=O)C(c2cc(Cl)ccc2Cl)=C1", "note": "[L5]", "values": [{"measurement": "viability of mice", "setting": "toxicity of L5 in mice", "value": "all alive"}, {"measurement": "effect on pLck", "setting": "[1]; 1 mg/kg of body weight", "value": "only a minor effect"}, {"measurement": "increase of splenocyte pLck", "setting": "[1]; ~3 mg/kg of body weight, s.c., daily, 4 days", "value": "~3.3", "unit": "fold"}, {"measurement": "increase of spleen IFNγ+ cells", "setting": "[1]; ~3 mg/kg, s.c., daily, 4 days", "value": "approximately 3 fold"}, {"measurement": "direct toxicity against B16 cells", "setting": "B16 melanoma cells", "value": "little direct toxicity"}, {"measurement": "inhibition of phosphatase activity of recombinant SHP-1", "setting": "recombinant SHP-1", "value": "completely or almost completely inhibited"}]}]}
